# According to paper PMC3726613, “Bacterial Cyclic AMP-Phosphodiesterase Activity Coordinates Biofilm Formation” (PLoS ONE, 2013):
# Biological target: T1, CpdS (SMA3506), CpdS-His8 (Serratia ureilytica, UniProt A0A9X9G1H8)
# T1 construct: gene cpdA
# Test: bis-pNPP hydrolysis assay
# Type: biochemical
# Settings: read-out: 50% reduction in the activity
# T1 sequence (A0A9X9G1H8 entry or part of it): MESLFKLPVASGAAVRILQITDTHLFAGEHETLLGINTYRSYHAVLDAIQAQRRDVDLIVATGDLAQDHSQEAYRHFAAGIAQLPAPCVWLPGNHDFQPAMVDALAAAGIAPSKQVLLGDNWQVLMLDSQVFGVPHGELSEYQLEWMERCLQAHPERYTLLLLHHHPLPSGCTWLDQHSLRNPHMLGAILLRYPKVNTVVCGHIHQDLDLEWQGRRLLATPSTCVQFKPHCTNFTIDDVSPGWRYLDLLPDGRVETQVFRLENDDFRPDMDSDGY
smiles,measurement,value
CC(C)Cn1c(=O)n(C)c(=O)c2[nH]cnc21 [IBMX],IC50,4.8 mM
